Measured values as given in ChEMBL document CHEMBL1137936, “Optimization of the indolyl quinolinone class of KDR (VEGFR-2) kinase inhibitors: effects of 5-amido- and 5-sulphonamido-indolyl groups on pharmacokinetics and hERG binding” (Bioorg Med Chem Lett, 2004).

Key:
[1] = Compound was tested for the inhibition of VEGF-stimulated mitogenesis as determined in human umbilical vein endothelial cells; type: functional, cell-based; conditions: endothelial cell
[2] = Half life in dog plasma; type: ADME, organism-based, Canis lupus familiaris
[3] = target: T1, Voltage-gated inwardly rectifying potassium channel KCNH2 (Homo sapiens, UniProt Q12809); assay: Affinity for HERG voltage-gated potassium channel subunit Kv11.1
[4] = target: Vascular endothelial growth factor receptor 2 (Homo sapiens, UniProt P35968); assay: Inhibition of VEGF receptor 2 mediated phosphorylation of poly-Glu/Tyr (4:1)
[5] = Plasma clearance in dogs; type: ADME, organism-based, Canis lupus familiaris; conditions: dog
[6] = Cmax in monkey after administration of 1 mg/kg iv; type: ADME, organism-based; set-up: dose 1 mg/kg, route intravenous; conditions: cercopithecidae, in vivo
[7] = Volume distribution in monkey after administration of 1 mg/kg iv; type: ADME, organism-based; set-up: dose 1 mg/kg, route intravenous; conditions: cercopithecidae, in vivo, read-out: Vss
[8] = Half life in dog plasma after administration of 1 mg/kg iv; type: ADME, organism-based, Canis lupus familiaris; set-up: dose 1 mg/kg, route intravenous
[9] = Half life in rat plasma after administration of 2 mg/kg iv; type: ADME, organism-based; set-up: dose 2 mg/kg, route intravenous
[10] = Plasma clearance in rat after administration of 2 mg/kg iv; type: ADME, organism-based; set-up: dose 2 mg/kg, route intravenous
[11] = Partition coefficient (logP); type: physicochemical; conditions: octanol/water
[12] = Oral bioavailability in dog (dose 1 mg/kg p.o.); type: ADME, organism-based, Canis lupus familiaris; conditions: in vivo
[13] = Half life in monkey plasma after administration of 1 mg/kg iv; type: ADME, organism-based; set-up: dose 1 mg/kg, route intravenous; conditions: cercopithecidae
[14] = Volume distribution in rat after administration of 2 mg/kg iv; type: ADME, organism-based; set-up: dose 2 mg/kg, route intravenous; conditions: in vivo, read-out: Vss
[15] = Volume distribution in dog after administration of 1 mg/kg iv; type: ADME, organism-based, Canis lupus familiaris; set-up: dose 1 mg/kg, route intravenous; conditions: in vivo, read-out: Vss
[16] = Plasma clearance in monkey after administration of 1 mg/kg iv; type: ADME, organism-based; set-up: dose 1 mg/kg, route intravenous; conditions: cercopithecidae
[17] = Oral bioavailability in rat (dose 10 mg/kg p.o.); type: ADME, organism-based; conditions: in vivo
[18] = Cmax in dog after administration of 1 mg/kg iv; type: ADME, organism-based, Canis lupus familiaris; set-up: dose 1 mg/kg, route intravenous; conditions: in vivo
[19] = Oral bioavailability in monkey (dose 1 mg/kg p.o.); type: ADME, organism-based; conditions: cercopithecidae, in vivo
[20] = Plasma clearance in dog after administration of 1 mg/kg iv; type: ADME, organism-based, Canis lupus familiaris; set-up: dose 1 mg/kg, route intravenous
[21] = Cmax in rat after administration of 2 mg/kg iv; type: ADME, organism-based; set-up: dose 2 mg/kg, route intravenous; conditions: in vivo
[22] = Half life in dog plasma after administration of 0.25 mg/kg iv; type: ADME, organism-based, Canis lupus familiaris; set-up: dose 0.25 mg/kg, route intravenous
[23] = target: T1, Voltage-gated inwardly rectifying potassium channel KCNH2; assay: Effect on prolongation of the heart rate-corrected QT interval; type: functional
[24] = Oral bioavailability in rat after administration of 10 mg/kg po; type: ADME, organism-based; conditions: in vivo
[25] = Plasma clearance in dog after administration of 0.25 mg/kg iv; type: ADME, organism-based, Canis lupus familiaris; set-up: dose 0.25 mg/kg, route intravenous

Sequence of Vascular endothelial growth factor receptor 2 (P35968 whole entry): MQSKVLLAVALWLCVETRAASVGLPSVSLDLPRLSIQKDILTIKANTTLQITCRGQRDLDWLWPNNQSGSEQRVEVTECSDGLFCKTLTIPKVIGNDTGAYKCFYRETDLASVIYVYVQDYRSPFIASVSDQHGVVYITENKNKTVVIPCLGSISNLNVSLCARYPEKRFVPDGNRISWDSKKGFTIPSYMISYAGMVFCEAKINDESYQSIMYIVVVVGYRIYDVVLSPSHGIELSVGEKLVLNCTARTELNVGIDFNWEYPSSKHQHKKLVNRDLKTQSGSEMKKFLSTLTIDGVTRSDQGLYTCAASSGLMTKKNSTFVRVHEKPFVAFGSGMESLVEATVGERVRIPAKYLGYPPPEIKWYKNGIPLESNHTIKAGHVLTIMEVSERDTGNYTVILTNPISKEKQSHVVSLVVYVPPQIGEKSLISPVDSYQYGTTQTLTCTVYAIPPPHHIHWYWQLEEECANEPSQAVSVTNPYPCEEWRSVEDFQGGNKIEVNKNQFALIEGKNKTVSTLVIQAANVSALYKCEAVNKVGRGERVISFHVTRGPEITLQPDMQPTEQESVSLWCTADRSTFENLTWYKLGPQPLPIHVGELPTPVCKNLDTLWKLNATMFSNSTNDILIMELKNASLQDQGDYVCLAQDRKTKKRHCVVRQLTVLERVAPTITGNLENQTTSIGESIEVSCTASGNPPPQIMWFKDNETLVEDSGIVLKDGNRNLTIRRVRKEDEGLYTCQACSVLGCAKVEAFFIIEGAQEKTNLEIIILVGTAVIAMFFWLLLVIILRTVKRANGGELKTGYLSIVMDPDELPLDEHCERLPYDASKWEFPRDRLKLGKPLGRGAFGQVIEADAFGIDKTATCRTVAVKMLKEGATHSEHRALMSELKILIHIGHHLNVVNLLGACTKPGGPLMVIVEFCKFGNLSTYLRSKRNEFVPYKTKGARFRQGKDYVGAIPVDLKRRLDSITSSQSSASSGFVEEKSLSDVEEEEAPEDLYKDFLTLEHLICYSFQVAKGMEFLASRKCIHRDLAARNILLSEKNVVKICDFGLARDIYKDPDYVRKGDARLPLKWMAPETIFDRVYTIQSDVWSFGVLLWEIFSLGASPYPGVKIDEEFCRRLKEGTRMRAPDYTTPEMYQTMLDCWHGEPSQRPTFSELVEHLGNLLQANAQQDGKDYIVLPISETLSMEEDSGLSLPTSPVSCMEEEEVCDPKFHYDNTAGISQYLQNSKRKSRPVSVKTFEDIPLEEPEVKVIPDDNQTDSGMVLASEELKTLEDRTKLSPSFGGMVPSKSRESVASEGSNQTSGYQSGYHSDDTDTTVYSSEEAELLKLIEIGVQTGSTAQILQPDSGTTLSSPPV
T1 sequence (Q12809 whole entry): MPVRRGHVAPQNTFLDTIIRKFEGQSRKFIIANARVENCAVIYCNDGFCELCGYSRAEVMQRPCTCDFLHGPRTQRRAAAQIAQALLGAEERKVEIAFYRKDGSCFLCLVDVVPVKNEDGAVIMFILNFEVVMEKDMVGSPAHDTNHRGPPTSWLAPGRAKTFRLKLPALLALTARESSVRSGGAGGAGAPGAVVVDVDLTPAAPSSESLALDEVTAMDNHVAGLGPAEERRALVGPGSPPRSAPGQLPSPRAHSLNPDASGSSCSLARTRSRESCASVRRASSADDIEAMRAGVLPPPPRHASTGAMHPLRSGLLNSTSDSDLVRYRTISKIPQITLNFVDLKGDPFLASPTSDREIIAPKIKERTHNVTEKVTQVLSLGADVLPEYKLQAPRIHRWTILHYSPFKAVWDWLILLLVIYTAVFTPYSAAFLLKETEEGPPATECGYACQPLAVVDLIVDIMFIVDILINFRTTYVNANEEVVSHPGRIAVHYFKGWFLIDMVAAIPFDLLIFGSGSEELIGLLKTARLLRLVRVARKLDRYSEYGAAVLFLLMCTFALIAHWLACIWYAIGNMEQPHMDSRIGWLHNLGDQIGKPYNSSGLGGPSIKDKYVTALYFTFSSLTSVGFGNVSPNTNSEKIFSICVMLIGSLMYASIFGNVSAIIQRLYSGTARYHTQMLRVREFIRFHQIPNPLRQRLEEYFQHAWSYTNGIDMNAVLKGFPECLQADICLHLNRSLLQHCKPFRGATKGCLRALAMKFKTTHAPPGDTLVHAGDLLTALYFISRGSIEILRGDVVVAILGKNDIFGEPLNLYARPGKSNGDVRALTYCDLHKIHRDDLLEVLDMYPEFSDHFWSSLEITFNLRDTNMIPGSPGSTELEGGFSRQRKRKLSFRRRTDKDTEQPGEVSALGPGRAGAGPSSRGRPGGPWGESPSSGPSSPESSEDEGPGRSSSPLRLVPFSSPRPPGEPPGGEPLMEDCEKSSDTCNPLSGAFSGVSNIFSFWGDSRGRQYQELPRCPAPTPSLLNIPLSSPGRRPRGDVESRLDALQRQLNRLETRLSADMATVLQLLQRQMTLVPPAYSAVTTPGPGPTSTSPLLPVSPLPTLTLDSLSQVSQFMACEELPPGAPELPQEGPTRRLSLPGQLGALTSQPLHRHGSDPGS

| SMILES | IC50 [1] | half-life [2] | IP [3] | IC50 [4] | clearance [5] | logP [11] | other results |
| --- | --- | --- | --- | --- | --- | --- | --- |
| NC1CCN(C(=O)c2ccc3[nH]c(-c4cc5ccccc5nc4O)cc3c2)C1 (stereo not given) | 4 nM | 1.1 h | > 10000 nM | 5 nM | 26 mL/min/kg | – | – |
| CN1CCN(S(=O)(=O)c2ccc3[nH]c(-c4cc5ccccc5nc4O)cc3c2)CC1 | 31 nM | 6.4 h | 3440 nM | 10 nM | 0.5 mL/min/kg | 3 | Cmax [6]: 630 nM; Vd [7]: 2.1 L/kg; half-life [8]: 6.4 h; half-life [9]: 1.1 h; clearance [10]: 29 mL/min/kg; bioavailability [12]: 63%; half-life [13]: 3.4 h; Vd [14]: 0.9 L/kg; Vd [15]: 0.3 L/kg; clearance [16]: 12 mL/min/kg; bioavailability [17]: 54%; Cmax [18]: 5200 nM; bioavailability [19]: 40%; clearance [20]: 0.5 mL/min/kg; Cmax [21]: 4800 nM |
| O=c1[nH]c2ccccc2cc1-c1nc2ccccc2[nH]1 | 1140 nM | – | – | – | – | – | – |
| COCCN(C)CCOc1ccc2[nH]c(-c3cc4ccccc4nc3O)cc2c1 | 8 nM | < 1 h | 1950 nM | 7 nM | > 50 mL/min/kg | 3.1 | half-life [22]: < 1 h; half-life [9]: 1.4 h; clearance [10]: 56 mL/min/kg; EC10 [23]: 1900 nM; Vd [14]: 5 L/kg; bioavailability [24]: 20%; clearance [25]: > 50 mL/min/kg; Cmax [21]: 470 nM |
| O=C(O)C1CCN(CCCOc2ccc3[nH]c(-c4cc5ccccc5nc4O)cc3c2)CC1 | 41 nM | 3.2 h | 3050 nM | 8 nM | 7.7 mL/min/kg | 0.9 | EC10 [23]: 5200 nM |
| O=c1[nH]c2ccccc2cc1-c1cc2cc(S(=O)(=O)N3CCNCC3)ccc2[nH]1 | 30 nM | 12.7 h | 2450 nM | 11 nM | 3.5 mL/min/kg | 2.3 | – |
| CC(=O)N1CCN(CCOc2ccc3[nH]c(-c4cc5ccccc5nc4O)cc3c2)CC1 | 4 nM | 2.2 h | 520 nM | 4 nM | 7.8 mL/min/kg | 3.2 | – |
| O=C(c1ccc2[nH]c(-c3cc4ccccc4nc3O)cc2c1)N1CCNCC1 | 4 nM | 4.2 h | > 10000 nM | 5 nM | 27 mL/min/kg | 1.7 | – |
| O=c1[nH]c2ccccc2cc1-c1cc2ccccc2[nH]1 | 184 nM | – | – | – | – | – | – |
| NC1CCN(S(=O)(=O)c2ccc3[nH]c(-c4cc5ccccc5nc4O)cc3c2)C1 (stereo not given) | 27 nM | 3.4 h | 2650 nM | 16 nM | 11 mL/min/kg | – | – |
| CN1CCN(C(=O)c2ccc3[nH]c(-c4cc5ccccc5nc4O)cc3c2)CC1 | 4 nM | 2.4 h | 10800 nM | 5 nM | 19 mL/min/kg | 2.6 | Cmax [6]: 1250 nM; Vd [7]: 0.9 L/kg; half-life [8]: 2.4 h; half-life [9]: 2.3 h; clearance [10]: 3.8 mL/min/kg; bioavailability [12]: 15%; half-life [13]: 2.8 h; Vd [14]: 0.7 L/kg; Vd [15]: 2.9 L/kg; clearance [16]: 3.4 mL/min/kg; bioavailability [17]: 31%; Cmax [18]: 160 nM; bioavailability [19]: 46%; clearance [20]: 19 mL/min/kg; Cmax [21]: 5790 nM |
| O=C(NC1CCNC1)c1ccc2[nH]c(-c3cc4ccccc4nc3O)cc2c1 (stereo not given) | 53 nM | 1.7 h | 13700 nM | 6 nM | 38 mL/min/kg | – | – |
| Oc1nc2ccccc2cc1-c1cc2cc(OCCN3CCCCC3)ccc2[nH]1 | 17 nM | 1.3 h | 980 nM | 4 nM | > 50 mL/min/kg | 3.7 | EC10 [23]: 640 nM |
| O=c1[nH]c2ccccc2cc1-c1cc2cc(S(=O)(=O)NC3CCNC3)ccc2[nH]1 (stereo not given) | 97 nM | 9.5 h | 2835 nM | 14 nM | 0.4 mL/min/kg | – | – |
